How the values were obtained:
[1] = Plasma pharmacokinetic parameters following intravenous (IV) or oral (PO) administration in rats; type: in vivo, Sprague-Dawley rats; conditions: male, Sprague-Dawley, rat, plasma; for AUC / bioavailability: 2.5 mg/kg; for clearance: intravenous, 0.5 mg/kg
Experimental: (§1) Adult male Sprague-Dawley rats (230-250 g) (Charles River Labs, Hollister, CA) were utilized for the study. There were 2 rats/group. All animals were food fasted overnight with water provided ad libitum at all times. Compounds 1, 4, 14 and 19 were synthesized as described in Examples 2, 17, 7, and 12, respectively, and formulated in injectable water.
(§2) The morning of each dosing, individual doses were calculated based on current body weights on the day of dosing. The jugular vein cannula (JVC) and the carotid artery cannula (CAC) were externalized, flushed with HEP/saline (10 IU/mL HEP/mL saline), plugged, and labeled to identify the jugular vein and the carotid artery. The IV group animals were dosed at 0.5 mg/kg of Compound 1, 4, 14 or 19, respectively, intravenously via the jugular vein, while the PO dose was administered 2.5 mg/kg of Compound 1, 4, 14 or 19, respectively, orally via gavage. For the IV group, immediately following the dose of test article, the dead volume of the catheter was flushed with 0.9% saline to ensure the animals received the full dose.
Approximately 0.2 mL of blood was collected per time point from JVC. Blood samples were collected at 2 (IV group only), 5, 15, 30, 60, 120, 240, 360, 420 (Compound 19 only), 480, 720 (Compound 19 only), and 1440 minutes via the CAC and transferred immediately into K2EDTA coated tubes pre-loaded 2 μl with quenching cocktail and placed on wet ice. The samples were centrifuged within 30 min after collection at 10,000 RPM for 5 minutes and the resulting plasma was separated. Plasma was transferred into microfuge tubes and placed on dry ice immediately. The plasma samples were stored at approximately −70° C. until bioanalysis.
Plasma samples were extracted by protein precipitation with acetonitrile containing 0.1% formic acid and doxepin for Compound 1 (available from Sigma-Aldrich) or SCH58261 for Compounds 4, 14 and 19 (available from Sigma-Aldrich) as an internal standard. Following vortex and centrifugation, supernatant was diluted 3-fold with water containing 0.1% formic acid and analyzed by LC-MS/MS.
Pharmacokinetic parameters (PK) were determined by non-compartmental analysis (NCA) using Phoenix 64 WinNonlin (version 8) and Dotmatics (version 5.0). Nominal doses and time points were used for the analysis.
The following PK parameters were estimated using plasma concentration-time profile of each animal with the results presented in Table 3: • AUCinf Area under the concentration-time from zero to time infinity • AUClast Area under the concentration-time from zero to time of last concentration value • F Bioavailability • CL Total body clearance • Cmax Maximum (peak) concentration • MRTlast Mean residence time to last observable concentration • Tmax Time to reach maximum or peak concentration following administration • Vss Volume of distribution at steady state
as §1, with “Compound 1 was” for “Compounds 1, 4, 14 and 19 were”, “Example 2” for “Examples 2, 17, 7, and 12, respectively,”
as §2, with “1” for “1, 4, 14 or 19, respectively,”
Approximately 0.2 mL of blood was collected per time point from JVC. […]

A2A receptor = molecular target: T1, A2A receptor (Homo sapiens, UniProt P29274); test: Radioligand receptor binding assay, A2A receptor; conditions: cell membranes overexpressing A2A receptor, read-out: Potency Ki A2A
T1 construct: purchased
Experimental: (§3) Using conventional receptor binding assay techniques, Compounds 1-24 were assayed to determine binding activity at the A2A, A1, and A3 receptors with the results shown in Table 7.
(§4) Receptor binding affinity of Compounds 1-24 was measured using radioligand binding assays using commercially obtained cell membranes prepared from cell lines overexpressing the A2A, A1, or A3 receptors. Briefly, cell membrane preparations from cells expressing the specific receptor were mixed with the appropriate [^3H]-labeled tracer for the specific receptor and the test compound or a known inhibitor of receptor-ligand binding. Following 60 min incubation at room temperature to allow receptor-ligand complex formation, the complexes were collected by filtration, washed with 50 mM Tris HCl (pH 7.5) to remove radioligand that was not receptor-bound, and the remaining radioactivity determined by liquid scintillation counting. Specific radioligand binding was calculated for each test compound concentration and IC50 values were determined by non-linear, regression analysis. Inhibition constants (Ki) were calculated using the equation of Cheng and Prusoff using the observed IC50 of the tested compound, the concentration of radioligand employed in the assay and the experimentally determined values for the Kd of the ligand.

A1 receptor = molecular target: T2, A1 receptor (Homo sapiens, UniProt P30542); test: Radioligand receptor binding assay, A1 receptor; conditions: cell membranes overexpressing A1 receptor, read-out: Potency Ki A1
T2 construct: purchased
T2 sequence (P30542 1-326): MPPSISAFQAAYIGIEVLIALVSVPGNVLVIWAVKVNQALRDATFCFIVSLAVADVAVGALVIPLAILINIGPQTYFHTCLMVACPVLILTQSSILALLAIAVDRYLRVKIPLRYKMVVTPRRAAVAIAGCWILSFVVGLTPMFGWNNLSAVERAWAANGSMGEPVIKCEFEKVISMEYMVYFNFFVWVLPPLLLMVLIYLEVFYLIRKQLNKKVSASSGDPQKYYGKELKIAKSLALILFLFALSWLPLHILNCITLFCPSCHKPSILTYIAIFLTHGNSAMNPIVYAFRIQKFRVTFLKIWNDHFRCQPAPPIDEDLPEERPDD
Experimental: as §3, §4

[2] = Brain-to-plasma ratio (B/P) after administration; type: in vivo, Sprague-Dawley rats; conditions: Sprague-Dawley, rat, brain-to-plasma ratio at 1 h
Source text: A similar unexpected result was obtained when the phenyl ring present on Compound 1 was replaced with a halogen substituted pyridine. The halogen was previously introduced on the phenyl ring with the aim of blocking a possible metabolic soft-spot, with similar results observed as for Compound 1 in terms of exposure, clearance and bioavailability (Compound 10 and Compound 15). The substituted pyridine ring was designed to modulate the lipophilicity and polar surface area, as well as to address metabolic soft-spot concerns. Clearance and bioavailability parameters remain similar between substituted phenyl and pyridine (Compound 4 and Compound 14) analogs, which span a range in cLogP of 2.7-3.2. It was therefore surprising the significant improvement in exposure and clearance observed for the more lipophilic Compound 19. […] A compound is commonly deemed to be a brain penetrant if the brain-to-blood/plasma concentration ratio (B/P) is greater than 0.04 using methods as known in the art (Schaffer, Annual Reports in Medicinal Chemistry, 45:55-70, 2010).
Plasma pharmacokinetic parameters were determined following oral (PO) administration of further compounds essentially as described in Example 28 with the results shown in Table 6.

mouse CT-26 cells = test: Antitumor activity in CT26 subcutaneous tumor model in Balb/c mice; type: in vivo; conditions: day 13 vs vehicle; 30 mg/kg qdx9 PO + anti-PD1 antibody 200 μg/mouse q2dx4 IP
Experimental: Mice used were ˜ 6-8 week-old female Balb/c mice subcutaneously inoculated with 2×10^6 mouse CT-26 cells. […] The mice were divided into six treatment groups as follows: vehicle (qdx9) PO+IP, Compound 1 (10 mg/kg, qdx9)+an exemplary anti-mouse PD1 (CD279) antibody (BioXCell) (200 μg/mouse, q2dx4); Compound 1 (30 mg/kg, qdx9)+anti-PD1 antibody (200 μg/mouse, q2dx4), Compound 1 (100 mg/kg)+anti-PD1 antibody (200 μg/mouse, q2dx4), anti-PD1 antibody (200 μg/mouse, q2dx4), or preladenant (30 mg/kg, qdx9)+anti-PD1 antibody (200 μg/mouse, q2dx4). Compound 1 and preladenant were administered orally. The anti-PD1 antibody was administered IP. Body weight was measured daily. Tumor growth of the CT26 cells was monitored three times per week by measuring the tumor volume size using a caliper with the results shown in FIG. 5.

[3] = Table 6, oral (PO) administration essentially as described in Example 28
[4] = Table 6, essentially as described in Example 28
[5] = po, Table 6, oral (PO) administration essentially as described in Example 28
[6] = oral, Table 2 summary of Example 27, values marked 1 are the average of experiments

T1 sequence (P29274 whole entry): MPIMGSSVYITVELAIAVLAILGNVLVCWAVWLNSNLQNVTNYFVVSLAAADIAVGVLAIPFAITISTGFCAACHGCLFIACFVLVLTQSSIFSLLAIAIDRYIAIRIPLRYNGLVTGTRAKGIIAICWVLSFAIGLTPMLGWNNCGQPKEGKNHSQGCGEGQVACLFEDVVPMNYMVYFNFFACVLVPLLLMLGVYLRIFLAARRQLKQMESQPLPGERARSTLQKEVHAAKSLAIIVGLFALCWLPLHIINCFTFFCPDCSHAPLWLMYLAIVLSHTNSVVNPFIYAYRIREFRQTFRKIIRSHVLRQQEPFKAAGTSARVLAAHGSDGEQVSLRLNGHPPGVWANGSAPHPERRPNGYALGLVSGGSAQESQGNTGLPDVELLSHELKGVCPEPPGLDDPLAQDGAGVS

Row | Compound | AUC [1, 3] | clearance [1, 4] | bioavailability [1, 5] | Ki (A2A receptor) | Ki (A1 receptor) | Kp at 1 h ([2]; oral, 2.5 mg/kg, Table 6) | clearance ([1]; Table 2 summary of Example 27, values marked 1 are the average of experiments) | AUC [1, 6] | bioavailability [1, 6] | Kp at 1 h ([2]; Table 2) | % TGI (mouse CT-26 cells)
1 | [2H]C([2H])([2H])OC([2H])([2H])C([2H])([2H])Oc1ccc(N2C([2H])([2H])C([2H])([2H])N(C([2H])([2H])C([2H])([2H])N(c3cc4nc(-c5ncco5)nn4c(N)n3)C([2H])([2H])[2H])C([2H])([2H])C2([2H])[2H])cc1 [Compound 20, N^7-(^2H3)methyl-N^7-[2-{4-[4-({2-[(^2H3)methyloxy](^2H4)ethyl}oxy)phenyl](^2H8)piperazin-1-yl}(^2H4)ethyl]-2-(1,3-oxazol-2-yl)[1,2,4]triazolo[1,5-c]pyrimidine-5,7-diamine] | 1170 ng·h/mL | 17 mL/min/kg | 50% | 6 nM | > 100000 nM | 0.05 | – | – | – | – | –
2 | COCCOc1cnc(N2CCN3[C@H](CC[C@H]3CN(C)c3cc4nc(-c5ncco5)nn4c(N)n3)C2)c(F)c1 [Compound 21, N^7—({(6S,8aR)-2-[3-fluoro-5-(2-methoxyethoxy)pyridin-2-yl]octahydropyrrolo[1,2-a]pyrazin-6-yl}methyl)-N^7-methyl-2-(1,3-oxazol-2-yl)[1,2,4]triazolo[1,5-c]pyrimidine-5,7-diamine] | 429 ng·h/mL | 30 mL/min/kg | 31% | 8 nM | 3080 nM | 0.05 | – | – | – | – | –
3 | COCCOc1ncc(N2CCN(CCN(C)c3cc4nc(-c5ncco5)nn4c(N)n3)CC2)cc1C(F)(F)F [Compound 22, N^7-(2-{4-[6-(2-methoxyethoxy)-5-(trifluoromethyl)pyridin-3-yl]piperazin-1-yl}ethyl)-N^7-methyl-2-(1,3-oxazol-2-yl)[1,2,4]triazolo[1,5-c]pyrimidine-5,7-diamine] | 280 ng·h/mL | 38 mL/min/kg | 25% | 11 nM | 3200 nM | 0.03 | – | – | – | – | –
4 | COCCOc1ccc(N2CCN(CCN(C)c3cc4nc(-c5ncco5)nn4c(N)n3)CC2)nc1 [Compound 23, N^7-(2-{4-[5-(2-methoxyethoxy)pyridin-2-yl]piperazin-1-yl}ethyl)-N^7-methyl-2-(1,3-oxazol-2-yl)[1,2,4]triazolo[1,5-c]pyrimidine-5,7-diamine] | 336 ng·h/mL | 52 mL/min/kg | 42% | 9 nM | 15500 nM | 0.08 | – | – | – | – | –
5 | COCCOc1ccc(N2CCN(CCNc3cc4nc(-c5ncco5)nn4c(N)n3)CC2)cc1 [Compound 24, N^7-(2-{4-[4-(2-methoxyethoxy)phenyl]piperazin-1-yl}ethyl)-2-(1,3-oxazol-2-yl)[1,2,4]triazolo[1,5-c]pyrimidine-5,7-diamine] | 1070 ng·h/mL | 28 mL/min/kg | 70% | 43 nM | > 10000 nM | 0.11 | – | – | – | – | –
6 | COCCOc1ccc(N2CCN(CCN(C)c3cc4nc(-c5ccco5)nn4c(N)n3)CC2)cc1 [Reference compound, 2-(furan-2-yl)-N^7-(2-(4-(4-(2-methoxyethoxy)phenyl)piperazin-1-yl)ethyl)-N^7-methyl-[1,2,4]triazolo[1,5-c]pyrimidine-5,7-diamine, reference compound] | – | – | – | 2.6 nM | 1270 nM | – | 34 mL/min/kg | 408 ng·h/mL | 34% | 0.17 | –
7 | Preladenant [reference compound] | – | – | – | – | – | – | – | – | – | – | 56^3%

Reference: patent publication US12325708B2, “Adenosine 2 receptor antagonists” (Nektar Therapeutics, priority 2019, dated 2025)
